Measurements taken from patent US20180177805A1, “Intravitreal Lysine Acetylsalicylate As Treatment For Diabetic Retinopathy” (Fundación Para El Fomento De La Investigación Sani taria Y …, priority 2015, published 2018).

How the values were obtained:
CD18 leucocyte marker = experiment: CD18 leucocyte count by immunohistochemistry in retina sections, streptozotocin diabetic retinopathy model, after intravitreal injection; assay type: in vivo, Wistar rat; conditions: for CD18 count: treated (CASE) diabetic rats
Text: 1. CD18 leucocyte marker: the leucocyte is the main effector cell of the inflammatory response of the tissues, something which also occurs in the retina. CD18 is a surface molecule which is expressed in the membranes of the leucocytes activated in tissues where there is inflammation, as is the case with the diabetic retina. Determine its absolute and relative number helps to know whether the injected solution is capable of reducing the presence of leucocytes activated in determined layers of the retina as part of their anti-inflammatory action.
(§1) Pursuant to approval of the Bioethics Committee for Research of the University of Miguel Hernandez de Elche and based on the international standards for the use of animal experimentation, […] confined male Wistar rat specimens weighing 200 grams were induced to suffer diabetes by means of injecting intraperitoneal streptozotocin (75 mg/kg) in a single dose. The animals were monitored during the whole study continuously in terms of weight, blood sugar, loss of hair and formation of cataracts. All the animals were exposed to the same parameters of light, darkness and availability of water and food.
(§2) For the intravitreal injection, the animals were anesthetized with a mixture in a proportion of 1:1 of xylazine hydrochloride (4 mg/kg) and ketamine hydrochloride (10 mg/kg). Under mydriasis with 0.5% tropicamide, the intravitreal injection of the lysine acetylsalicylate solution was carried out under a surgical microscope with a micro injection syringe (Hamilton Co., Reno, Nev.) and a 32 gauge needle at 1 millimeter from the temporal limbus. Only half the diabetic animals were treated with the intravitreal solution, the rest of the animals were left to develop diabetic retinopathy naturally. The process of intravitreal injection was repeated in the same way, technique and dose in the same animals 4 weeks after the initial treatment. Summary of the organization of the experimental test: • Initially, the animals were evaluated prior to including them in the experimental test to discard those with defects or basic ocular changes. • The inducement of diabetes was carried out in all the animals by means of injecting intraperitoneal streptozotocin. • The blood sugar indices were compared at 24 and 48 hours of the injection to assess whether the inducement had been successful. • Once diabetes was confirmed, the animals were divided into two groups formed by 8 rats each. • Following the diabetic retinopathy model in rats, diabetes was left to develop naturally in both groups over the first 12 weeks.
(§3) Laminar sections of the retina of all the animals were carried out, being exposed to the action of 4% formaldehyde preservatives. For the marking of the endothelial cells, an anti-ICAM1 monoclonal antibody was used, we also used anti-CD18 monoclonal antibodies for the staining of the leucocytes. After fixing the different sections of stained tissue, the positively stained molecules and the amount of blood vessels present were counted under an optical microscope (Leica® microsystem) with 10× magnification.
(§4) For the purposes of assessing significant differences between the different regions of the retina, in all the tissues, the cell and vessel counts corresponding to the central retina (between optical nerve and macular area) and those corresponding to the peripheral retina (outside of the vascular arches) were carried out separately. These counts were specifically carried out on two layers of the retina: the external plexiform layer and the ganglion cell layer.
The U Mann-Whitney contrast test was used for independent samples. To contrast the correlation between the variables, the Spearman test was used.

[1] = tested on: ICAM-1 endothelial marker; experiment: ICAM-1 endothelial cell count by immunohistochemistry in retina sections, streptozotocin diabetic retinopathy model, after intravitreal injection; assay type: in vivo, Wistar rat; conditions: treated (CASE) diabetic rats
Text: 2. […] ICAM-1 is a transmembrane protein present in the endothelial cells and practically specific to them. Its immunohistochemical staining allows the endothelial cells present in the different layers of examined tissues to be quantitatively indicated and assessed and it gives us information concerning the vascularization of the examined tissues and the integrity of the vascular wall.
as §1, §2
Laminar sections of the retina of all the animals were carried out, being exposed to the action of 4% formaldehyde preservatives. […] After fixing the different sections of stained tissue, the positively stained molecules and the amount of blood vessels present were counted under an optical microscope (Leica® microsystem) with 10× magnification. […]

[2] = tested on: blood vessels of the retina; experiment: Vascular density (blood vessel count per tissue section) in retina, streptozotocin diabetic retinopathy model, after intravitreal injection; assay type: in vivo, Wistar rat; conditions: for VESSELS count: treated (CASE) diabetic rats
Text: 3. Vascular density: the chronic inflammation caused in diabetic retinopathy involves obliteration and death of the blood vessels. […] This scenario is a final stage of the phenomenon known as diabetic microangiopathy. Thus, determining the number of vessels present in each section of tissue can give us information concerning whether or not the medicament is capable of positively or negatively influencing the capillary density of the retina (vessels/portion of tissue).
as §1, §2, §3
as §4, with “layer. […]” for “layer.”

retina = tested on: retina; parameters: species or system Wistar rat; conditions: rat, in vivo
Description: as §2, with “The process of intravitreal injection was repeated in the same way, technique and dose in the same animals 4 weeks after the initial treatment.” left out, “weeks. […]” for “weeks.”

[3] = central retina, external plexiform layer, 25 micrograms intravitreal at weeks 12 and 16, sacrifice week 20
[4] = peripheral retina, external plexiform layer
[5] = peripheral retina, ganglion layer
[6] = treated animals, central retina (text says plexiform layer), range 3-6

CC(=O)Oc1ccccc1C(=O)O [lysine acetylsalicylate]
CD18 count (CD18 leucocyte marker; [3]): 16.5 (14.0-18.0) | CD18 count (CD18 leucocyte marker; central retina, ganglion layer): 5.0 (3.0-6.0) | CD18 count (CD18 leucocyte marker; [4]): 8.0 (6.0-9.0) | CD18 count (CD18 leucocyte marker; [5]): 3.0 (2.0-4.0) | CD18 count, average (CD18 leucocyte marker; [6]): 5 | leucocytes per field relative to number expected from vessel count (regression model) (CD18 leucocyte marker; treated group, central retina, expected at least 10 leucocytes per field): half the leucocytes which would be expected | ICAM1 count [1, 3]: 15.0 (14.0-17.5) | ICAM1 count ([1]; central retina, ganglion layer): 4.0 (3.0-5.0) | ICAM1 count [1, 4]: 9.0 (7.0-11.0) | ICAM1 count [1, 5]: 2.0 (1.3-3.0) | VESSELS count [2, 3]: 9.0 (7.0-11.0) | VESSELS count ([2]; central retina, ganglion layer): 5.0 (2.8-6.0) | VESSELS count [2, 4]: 6.0 (5.0-7.0) | VESSELS count [2, 5]: 3.0 (1.8-4.0) | vessels per tissue section, average [2, 6]: 5 | signs of medicament toxicity (de-structuring of retinal layers, absence of photoreceptor cells, histological alterations of optical nerve) (retina): No tissues were found to have signs that showed alterations suggesting toxicity
